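A five-concentration, 48-hour dose response in 96-well plates underlies each endpoint, interpolated linearly between surrounding concentrations. GI50 is the concentration that inhibits growth by half.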 Activity calls are given as the source filed them. No stated cut-off is given here; in the data, active = GI50 up to about 1.1 µM and inactive = higher.
Assays:
Assay in all cases: growth of human tumour cells (NCI), 48 h
[1] = system: COLO 205
[2] = system: HCC 2998
[3] = system: HCT-116
[4] = system: HOP-62
[5] = system: HOP-92
[6] = system: IGROV-1
[7] = system: K562
[8] = system: LOX IMVI
[9] = system: MOLT-4
[10] = system: Malme-3M
[11] = system: NCI-H226
[12] = system: NCI-H522
[13] = system: OVCAR-4
[14] = system: SF-295
[15] = system: SF-539
[16] = system: SK-MEL-2
[17] = system: UO-31
[18] = system: ACHN
[19] = system: TK-10

Row | SMILES | GI50 [1] | GI50 [2] | GI50 [3] | GI50 [4] | GI50 [5] | GI50 [6] | GI50 [7] | GI50 [8] | GI50 [9] | GI50 [10] | GI50 [11] | GI50 [12] | GI50 [13] | GI50 [14] | GI50 [15] | GI50 [16] | GI50 [17] | GI50 [18] | GI50 [19]
1 | Cn1c2ccccc2c(=O)c2c(O)cc3c(c21)C=CC(C)(C)O3 [NORACRONYCINE] | > 25 µM (inactive) | > 25 µM (inactive) | > 25 µM (inactive) | > 25 µM (inactive) | > 25 µM (inactive) | > 25 µM (inactive) | > 25 µM (inactive) | > 25 µM (inactive) | 6.28 µM (inactive) | > 25 µM (inactive) | > 25 µM (inactive) | > 25 µM (inactive) | > 25 µM (inactive) | > 25 µM (inactive) | > 25 µM (inactive) | > 25 µM (inactive) | > 25 µM (inactive) |  | 
2 | CC(C)CCC1CC2C(=O)N(c3ccccc3)C(=O)C2c2[nH]c3ccccc3c21 (configuration not stated) | 1.38 µM (inactive) | 1.42 µM (inactive) |  |  |  | 13.4 µM (inactive) | 0.571 µM (active) | 1.08 µM (active) | 2.77 µM (inactive) | 0.871 µM (active) | 2.66 µM (inactive) |  | 4.76 µM (inactive) | 0.509 µM (active) | 0.711 µM (active) |  | 6.28 µM (inactive) | 6.07 µM (inactive) | 4.53 µM (inactive)
3 | COc1ccc(-c2nnc3c4ccccc4sn23)cc1 | 42.4 µM (inactive) | 17 µM (inactive) | 30.2 µM (inactive) | 5.69 µM (inactive) | 34.9 µM (inactive) | 19.8 µM (inactive) | 16.6 µM (inactive) | 14.8 µM (inactive) | 15.3 µM (inactive) |  |  |  | 47 µM (inactive) |  | 32.7 µM (inactive) | 19 µM (inactive) | 14.3 µM (inactive) | 28 µM (inactive) | > 100 µM (inactive)
4 | Cc1cc(Cl)ccc1N1C(=O)C(=O)C(c2nc3ccccc3o2)C(=O)C1=O | 31.1 µM (inactive) | > 100 µM (inactive) | 46.5 µM (inactive) | > 100 µM (inactive) | 58.7 µM (inactive) | 35.6 µM (inactive) |  |  | 30.4 µM (inactive) | > 100 µM (inactive) | > 100 µM (inactive) | > 100 µM (inactive) | > 100 µM (inactive) | > 100 µM (inactive) | > 100 µM (inactive) | > 100 µM (inactive) | > 100 µM (inactive) | > 100 µM (inactive) | > 100 µM (inactive)
5 | Brc1ccc(C2CC(c3cccc4ccccc34)=Nc3ccccc3S2)cc1 (configuration not stated) | > 100 µM (inactive) | 30.4 µM (inactive) | 31.3 µM (inactive) | > 100 µM (inactive) | > 100 µM (inactive) | > 100 µM (inactive) | 26.2 µM (inactive) | 44.8 µM (inactive) | 23.5 µM (inactive) |  | > 100 µM (inactive) | 22.5 µM (inactive) | 44.6 µM (inactive) | 37.3 µM (inactive) | > 100 µM (inactive) | > 100 µM (inactive) | 54.3 µM (inactive) | > 100 µM (inactive) | > 100 µM (inactive)
6 | O=C(O)/C=C/c1c[nH]cn1 | > 500 µM (inactive) | > 500 µM (inactive) | > 500 µM (inactive) | 493 µM (inactive) | > 500 µM (inactive) | > 500 µM (inactive) | > 500 µM (inactive) | > 500 µM (inactive) | > 500 µM (inactive) | > 500 µM (inactive) | > 500 µM (inactive) | > 500 µM (inactive) | > 500 µM (inactive) | > 500 µM (inactive) | > 500 µM (inactive) | > 500 µM (inactive) | > 500 µM (inactive) |  | 
7 | O=C1C2C(C(=O)N1OS(=O)(=O)c1ccccc1)N(Cc1ccccc1)C(=O)N2Cc1ccccc1 (configuration not stated) | > 100 µM (inactive) | > 100 µM (inactive) | > 100 µM (inactive) | > 100 µM (inactive) | > 100 µM (inactive) | > 100 µM (inactive) | > 100 µM (inactive) | > 100 µM (inactive) | > 100 µM (inactive) | > 100 µM (inactive) | > 100 µM (inactive) | > 100 µM (inactive) | > 100 µM (inactive) | > 100 µM (inactive) | > 100 µM (inactive) |  | > 100 µM (inactive) | > 100 µM (inactive) | > 100 µM (inactive)
8 | CCC1CN2CCC1CC2 (configuration not stated) | > 100 µM (inactive) | > 100 µM (inactive) | > 100 µM (inactive) | > 100 µM (inactive) |  | > 100 µM (inactive) | > 100 µM (inactive) | > 100 µM (inactive) | > 100 µM (inactive) | > 100 µM (inactive) | > 100 µM (inactive) | > 100 µM (inactive) | > 100 µM (inactive) | > 100 µM (inactive) | > 100 µM (inactive) | > 100 µM (inactive) | > 100 µM (inactive) |  | 
9 | COc1c(Cl)cc(S(=O)O)cc1Cl |  | > 100 µM (inactive) | > 100 µM (inactive) | > 100 µM (inactive) |  |  | > 100 µM (inactive) | > 100 µM (inactive) | > 100 µM (inactive) | > 100 µM (inactive) |  | > 100 µM (inactive) | > 100 µM (inactive) |  | > 100 µM (inactive) | > 100 µM (inactive) | > 100 µM (inactive) | > 100 µM (inactive) | > 100 µM (inactive)
10 | CC(=O)N(CCN1C(=O)c2ccccc2C1=O)CCN1C(=O)c2ccccc2C1=O | > 100 µM (inactive) | > 100 µM (inactive) | > 100 µM (inactive) | > 100 µM (inactive) | > 100 µM (inactive) |  | > 100 µM (inactive) | > 100 µM (inactive) | > 100 µM (inactive) |  |  | > 100 µM (inactive) | > 100 µM (inactive) | > 100 µM (inactive) |  | > 100 µM (inactive) | > 100 µM (inactive) | > 100 µM (inactive) | > 100 µM (inactive)
11 | C[C@H]1[C@@H]2C[C@@H]3O[C@@]34[C@H]3CCC5Cc6nc7c(nc6C[C@@]5(C)[C@]3(O)CC(=O)[C@@]24CO[C@]12OC(C)(C)C[C@@H]2O)CC1CC[C@@H]2C3=C[C@H]4O[C@@]5(OC(C)(CO)C[C@@H]5O)[C@H](C)[C@@]4(O)[C@]3(C)[C@@H](O)CC2[C@]1(C)C7 (some centres not stated) | 0.0655 µM (active) | 0.506 µM (active) | 0.0583 µM (active) | 0.0109 µM (active) | 0.0254 µM (active) | 0.0291 µM (active) | 0.0266 µM (active) | 0.024 µM (active) |  | 0.0381 µM (active) | 0.0184 µM (active) | 0.0955 µM (active) | 0.194 µM (active) | 0.00215 µM (active) | 0.0179 µM (active) | 0.0239 µM (active) | 0.223 µM (active) |  | 
12 | COC(=O)[C@@H]1c2cc3c(c(O)c2[C@@H](OC)C[C@@]1(C)O)C(=O)c1c(O)cc2c(c1C3=O)OC1O[C@@]2(C)[C@H](O)[C@@H](N(C)C)[C@@H]1O | 0.257 µM (active) | 0.251 µM (active) | 0.261 µM (active) | 0.198 µM (active) | 0.0764 µM (active) | 0.291 µM (active) | 0.322 µM (active) |  | 0.143 µM (active) | 0.506 µM (active) | 0.301 µM (active) | 0.445 µM (active) | 0.395 µM (active) | 0.213 µM (active) | 2.69 µM (inactive) | 0.28 µM (active) | 1.14 µM (inactive) |  | 
13 | CCCCCCCCC[C@@H]1C[C@H](O)[C@H](Cc2ccccc2)N1C(=O)OC(C)(C)C | 17 µM (inactive) | 14.4 µM (inactive) | 17.9 µM (inactive) | 19.9 µM (inactive) | 15 µM (inactive) | 18.6 µM (inactive) | 37.4 µM (inactive) |  | 36.5 µM (inactive) | 20.1 µM (inactive) |  | 16.4 µM (inactive) | 17.7 µM (inactive) | 15.8 µM (inactive) | 20.9 µM (inactive) | 15.3 µM (inactive) | 14.3 µM (inactive) | 17.1 µM (inactive) | 15.5 µM (inactive)
14 | COc1cc(C(C)c2cc3c(cc2OCCO)OCO3)cc(OC)c1OC (configuration not stated) | 1.34 µM (inactive) | 2.04 µM (inactive) | 1.38 µM (inactive) | 1.74 µM (inactive) |  | 0.832 µM (active) | 0.486 µM (active) | 2.75 µM (inactive) | 0.935 µM (active) | > 100 µM (inactive) | 2.86 µM (inactive) | 0.547 µM (active) | 45.3 µM (inactive) | 0.413 µM (active) | 1.6 µM (inactive) | 2 µM (inactive) | 5.82 µM (inactive) | 10.1 µM (inactive) | 18.3 µM (inactive)
15 | CC1=C2C(=C[C@H]3[C@]4(C)CCCC(C)(C)[C@H]4CC[C@]34O[C@H]24)OC1=O | > 100 µM (inactive) | > 100 µM (inactive) | > 100 µM (inactive) | > 100 µM (inactive) | > 100 µM (inactive) | > 100 µM (inactive) | > 100 µM (inactive) |  | > 100 µM (inactive) | > 100 µM (inactive) | > 100 µM (inactive) | > 100 µM (inactive) | > 100 µM (inactive) | > 100 µM (inactive) |  | > 100 µM (inactive) | > 100 µM (inactive) | > 100 µM (inactive) | > 100 µM (inactive)
16 | O=C(O)c1ccc([N+](=O)[O-])c2c(=O)c3ccccc3[nH]c12 | > 100 µM (inactive) | > 100 µM (inactive) | > 100 µM (inactive) | > 100 µM (inactive) | > 100 µM (inactive) | > 100 µM (inactive) | > 100 µM (inactive) | > 100 µM (inactive) | > 100 µM (inactive) | > 100 µM (inactive) |  | > 100 µM (inactive) | > 100 µM (inactive) | > 100 µM (inactive) | > 100 µM (inactive) | > 100 µM (inactive) | > 100 µM (inactive) | > 100 µM (inactive) | 
